According to doi:10.1101/427617v2 (bioRxiv, 2019):

How the values were obtained:
dural lymphatic cells [1] = test: pHrodo-dextran uptake, live cell imaging; type: cell-based, rat; conditions: 10kD pHrodo-dextran, Dyngo4a at 100-200μM, Fig. 12B, 12D
dural lymphatic cells [2] = test: transferrin-AlexaFluor647 uptake, live cell imaging; type: cell-based, rat

**Q.** How did the “Effect of inhibitor on pHrodo dextran uptake” value (dural lymphatic cells [1]) turn out when `CCCCC[C@@H](O)[C@H]1C(=O)O[C@H](C)[C@@H](O)/C=C/C=C/C=C/C=C/C=C(\C)[C@@H](O)C[C@H](O)C[C@H](O)C[C@H](O)C[C@H](O)C[C@H](O)C[C@@H]1O` [filipin] was run?
**A.** Its value is “blocked uptake”.

**Q.** What does the source list for `O=C(N/N=C/c1cc(O)c(O)cc1O)c1cc2ccccc2cc1O` [Dyngo4a]?
**A.** Effect of inhibitor on transferrin-AlexaFluor647 uptake (dural lymphatic cells [2]; same concentration (100-200μM), Fig. 12C): specifically blocked; Effect of inhibitor on pHrodo dextran uptake (dural lymphatic cells [1]): blocked in dose dependent fashion

**Q.** How did the “Uptake of labeled transferrin by lymphatic cells” value (dural lymphatic cells [2]) turn out when “transferrin-AlexaFluor647: labeled transferrin used to test clathrin-dependent endocytosis” was run?
**A.** The value was “avidly took up”.
